Test [1] addresses T1, Ala^348,353 hMOR (Homo sapiens, UniProt P35372, C348A/C353A). It counts as binding.
The target in test [2] is T2, human mu opioid receptor (hMOR) (Homo sapiens, UniProt P35372). It is filed as cell-based.
The target in test [3] is T1, Ala^348,353 hMOR. It counts as cell-based.
Test [4] deals with T1, Ala^348,353 hMOR. As to the kind of experiment: biochemical. The following applies: read-out: maximal efficacy as percentage of stimulation above basal levels.
Test [5] concerns the target T2, human mu opioid receptor (hMOR). As to the kind of experiment: biochemical. The following applies: read-out: maximal efficacy as percentage of stimulation above basal levels.

T1 sequence (P35372 whole entry C348A/C353A): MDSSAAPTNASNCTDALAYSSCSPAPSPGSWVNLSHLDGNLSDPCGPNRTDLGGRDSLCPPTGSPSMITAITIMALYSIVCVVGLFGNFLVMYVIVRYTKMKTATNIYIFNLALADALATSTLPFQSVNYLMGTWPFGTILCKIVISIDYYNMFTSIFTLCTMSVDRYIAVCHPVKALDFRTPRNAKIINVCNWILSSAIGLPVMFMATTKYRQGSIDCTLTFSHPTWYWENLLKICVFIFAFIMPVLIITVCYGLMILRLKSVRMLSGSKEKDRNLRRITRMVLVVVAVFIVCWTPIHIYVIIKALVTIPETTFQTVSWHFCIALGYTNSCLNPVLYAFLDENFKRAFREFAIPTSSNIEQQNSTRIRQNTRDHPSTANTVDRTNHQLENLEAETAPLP
T2 sequence (P35372 whole entry): as the sequence (P35372 whole entry C348A/C353A) above, with A348C, A353C counted along it

As for `C[C@@H](NC(=O)[C@@H](N)Cc1ccc(O)cc1)C(=O)N[C@@H](Cc1ccccc1)C(=O)NCC(=O)N[C@@H](Cc1ccc(O)cc1)C(=O)N1CCC[C@H]1C(=O)N[C@@H](CO)C(N)=O` [Dermorphin], the “increase in binding affinity for Ala^348,353 hMOR compared to hMOR” value in test [1] is “approximately 20 fold”.

For `COc1cccc2c1[C@]13CCN(CC4CC4)[C@H](C2)[C@]1(OC)CCC(=O)C3` [Cyprodime], in test [2], the “hMOR expression level after ligand treatment” value was determined as 103 ± 9%. Moreover, the “Ala^348,353 hMOR expression level after ligand treatment” value in test [3] is on record as 245 ± 20%.

For `C[C@@H](NC(=O)[C@@H](N)Cc1ccc(O)cc1)C(=O)NCC(=O)N(C)[C@@H](Cc1ccccc1)C(=O)NCCO` [DAMGO, [D-Ala^2, N-Me-Phe^4, Gly^5-ol]-enkephalin], the Emax was found to be 164 ± 6% in test [4] and 366 ± 23% in test [5].

The record behind these values is article PMC317294 (BMC Pharmacology, 2003).
